Assay results taken from PMC11123956, “Nobiletin Stimulates Adrenal Hormones and Modulates the Circadian Clock in Mice” (Nutrients, 2024).

Legend:
[1] = tested on: PER2::LUC rhythm in peripheral tissues (kidney, liver, submandibular gland); assay: In vivo bioluminescence imaging of peripheral PER2::LUC rhythm; design: species or system mice; conditions: 100 mg/kg i.p., 3 days
Experimental: Male C57BL/6J mice (7 weeks old) were purchased from Charles River Japan (Kanagawa, Japan) and used for the serum hormone assay and RT-PCR. Male ICR mice were purchased from Tokyo Laboratory Animals Science Co., Ltd. (Tokyo, Japan), and female PERIOD2::LUCIFERASE (PER2::LUC) knock-in mice (ICR background) bred at Waseda University were used for blood glucose measurements and in vivo imaging assays, respectively. The mice were all housed under conditions of controlled temperature (23 °C ± 3 °C), humidity (50% ± 20%), and lighting (lights on from 07:00 to 19:00 at Taisho Pharmaceutical Co., Ltd. or from 08:00 to 20:00 at Waseda University). In the 24 h cycle, Zeitgeber time 0 (ZT0) was designated as the time when the lights were turned on, and ZT12 was designated as the time when the lights were turned off. All the mice were given access to food and tap water ad libitum, and nobiletin (10–100 mg/kg; purchased from FUJIFILM Wako Pure Chemical Corporation, Osaka, Japan) was administered by intraperitoneal (i.p.) injection in the vehicle (10 mL/kg body weight) containing 0.5% carboxymethyl cellulose (CMC). Rolipram (PDE4 inhibitor, FUJIFILM Wako Pure Chemical Corporation) and SR1078 (RORα/γ agonist, FUJIFILM Wako Pure Chemical Corporation) were also used for the experiment at 10 mg/kg in 0.5% CMC [12]. Mice were euthanized by rapid decapitation for whole blood samples.
An in vivo imaging system (IVIS) (Caliper Life Sciences, Hopkinton, MA, USA) was used to monitor the PER2::LUC activity rhythm waveform in the peripheral tissues (kidney, liver, and submandibular gland) of the mice. A previously developed protocol and analytical method to monitor bioluminescence oscillations in peripheral tissues was used. Briefly, the mice were anesthetized with isoflurane (FUJIFILM Wako Pure Chemical Corporation, Osaka, Japan) and enriched with oxygen. Mice were anesthetized and injected subcutaneously on the back and near the neck with D-luciferin potassium salt (FUJIFILM Wako Pure Chemical Corporation, Osaka, Japan) at a dose of 15 mg/kg body weight. Images were taken using an IVIS, in the dorsal-up position for the kidney 8 min after injection and in the ventral-up position for the liver and the submandibular gland 10 min after injection. Images were obtained six times/day at 4 h intervals (ZT3, 7, 11, 15, 19, and 23) (Figure 1 and Figure 2). The mice were returned to their home cages after each imaging procedure and quickly recovered from isoflurane anesthesia. Bioluminescence emitted from the kidneys and liver was calculated automatically using Living Image 3.2 software (Caliper Life Sciences). The average photon/min value for the six time points from each day was designated as 100%, and the bioluminescence rhythm for the entire day was expressed as a percentage of each set of six time points for individual organs. The peak phase and amplitude of the normalized data were determined using a single cosinor procedure program (Acro.exe version 3.5 [14]).
Figure 1 Experimental protocol for in vivo imaging. PER2::LUC female mice were treated with control (0.5% CMC) or nobiletin (100 mg/kg) at the same time points (ZT0, 4, 8, 12, 16, or 20) for three consecutive days, and then measured for peripheral clocks by in vivo whole-body imaging to examine phase–response curves (n = 4–5 in each).
Figure 2 Time-of-day dependence of peripheral PER2::LUC changes in nobiletin injection. (A) Representative photo images of in vivo PER2::LUC bioluminescence in the kidney, liver, and submandibular gland (sab gla). (B) Waveforms of PER2::LUC rhythm in each tissue at each treatment time. (C,D) Phase–response curves or amplitude–response curves of nobiletin injections in peripheral PER2::LUC rhythm. […]

PDE11A4 = target: T1, PDE11A4 (Homo sapiens, UniProt Q9HCR9); assay: PDE enzyme  assay, PDE11A4; assay type: biochemical
T1 construct: purchased Eurofins Panlabs Discovery Services Taiwan, Ltd. (contract assay); host or cells: insect Sf9 cells
Experimental: Enzyme assays for various subtypes of PDE (Table 1 and Figure 4) were conducted by Eurofins Panlabs Discovery Services Taiwan, Ltd. (New Taipei City, Taiwan). In the assays, five or six concentrations of nobiletin over five or six orders of magnitude were examined in experiments conducted in duplicate to determine the IC50 (concentration of nobiletin exerting half-maximal inhibition of control-specific activity). IC50 values were determined by nonlinear least squares regression analysis using MathIQTM (ID Business Solutions Ltd., Woking, UK). FAM-cAMP, FAM-cGMP (0.1 μM), and 100 μM [^3H]cGMP + cGMP were used for the substrate in the human recombinant insect Sf9 cells or Bovine retinal rod outer segments depending on the PDE subtype. The spectrofluorometric quantitation of fluorescein-AMP-IMAP, fluorescein-GMP-IMAP, or [^3H] guanosine was used depending on the PDE subtype. A known […] of each PDE was used as the positive control.

T1 sequence (Q9HCR9 whole entry): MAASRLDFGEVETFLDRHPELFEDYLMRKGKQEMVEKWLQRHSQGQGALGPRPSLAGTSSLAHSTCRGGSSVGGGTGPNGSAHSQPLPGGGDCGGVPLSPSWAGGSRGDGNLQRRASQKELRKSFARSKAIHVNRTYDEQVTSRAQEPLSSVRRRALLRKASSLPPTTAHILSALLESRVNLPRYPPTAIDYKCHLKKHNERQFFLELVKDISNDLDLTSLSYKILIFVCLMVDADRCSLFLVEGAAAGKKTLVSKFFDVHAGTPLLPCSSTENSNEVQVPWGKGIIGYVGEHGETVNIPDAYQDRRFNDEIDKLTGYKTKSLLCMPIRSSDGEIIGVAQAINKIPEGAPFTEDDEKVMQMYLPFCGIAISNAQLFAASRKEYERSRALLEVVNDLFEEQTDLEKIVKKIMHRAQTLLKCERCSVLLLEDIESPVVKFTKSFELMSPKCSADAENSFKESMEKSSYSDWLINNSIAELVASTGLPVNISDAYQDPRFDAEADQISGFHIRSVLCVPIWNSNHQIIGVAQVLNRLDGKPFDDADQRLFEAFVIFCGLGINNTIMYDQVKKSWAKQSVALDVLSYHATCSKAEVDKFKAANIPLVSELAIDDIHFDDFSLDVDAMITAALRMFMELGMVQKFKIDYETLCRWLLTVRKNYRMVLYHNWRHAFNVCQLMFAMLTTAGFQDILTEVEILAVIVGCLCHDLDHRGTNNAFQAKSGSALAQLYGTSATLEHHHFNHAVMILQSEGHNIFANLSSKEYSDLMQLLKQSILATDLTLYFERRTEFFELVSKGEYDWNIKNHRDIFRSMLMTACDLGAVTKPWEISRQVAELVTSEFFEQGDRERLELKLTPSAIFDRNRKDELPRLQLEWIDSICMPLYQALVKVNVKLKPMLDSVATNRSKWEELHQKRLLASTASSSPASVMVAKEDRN

`COc1ccc(-c2cc(=O)c3c(OC)c(OC)c(OC)c(OC)c3o2)cc1OC` [nobiletin] was tested, and the “amplitude of PER2::LUC rhythm vs control” value ([1]; kidney, liver and submandibular gland (all three tissues), treatment at ZT16) was “increased”, the “phase of PER2::LUC rhythm vs control” value ([1]; kidney, administration at ZT4) was “phase advancement” and the “amplitude of PER2::LUC rhythm vs control” value ([1]; kidney, treatment at ZT0 or 4) was “decreased”. The “phase of PER2::LUC rhythm vs control” value ([1]; kidney, treatment at ZT20) was “phase delay”, the “amplitude of PER2::LUC rhythm vs control” value ([1]; liver, treatment at ZT12) was “decreased” and the “phase of PER2::LUC rhythm vs control” value ([1]; liver, treatment at ZT12) was “phase-advanced”. For the same compound, the “phase of PER2::LUC rhythm vs control” value ([1]; submandibular gland, administration at ZT4) was “phase advancement” and the IC50 (PDE11A4) was 31 µM.
